The values that follow come from patent US20090263429A1, “Method of Preparing a Hydrogel” (The University of Manchester, priority 2005, published 2009).

The data set can be described thus: 96 well screen of Fmoc/Cbz-amino acid and dipeptide with thermolysin (gelation). In kind it is physicochemical. The following applies: Fmoc-G and GG with thermolysin, 20 mM Fmoc-aa, 48 hours at room temperature. As for the experimental part: Fmoc-amino acids or Cbz-amino acids with dipeptides were weighed in to a clean universal to the different concentrations and the various ratios required. They were then suspended in deionised water, and solubilized by the addition of 0.5M NaOH to adjust the pH to 13. The particle size was reduced through the reduction of larger clumps by gentle manipulation with a spatula, and the subsequent immersion in a sonication bath. […] The pH was reduced by the addition dropwise from a 200 μl pipette of 0.1 M HCl with gentle vortexing until the value reached 7. […] Upon acquisition of a neutral pH, de-ionised water was added up to the required volume.
The enzyme, thermolysin, was provided in the form of a lyphophilized powder. This was weighed to a sterile universal, and then reconstituted in distilled water to a concentration of 1 mg/ml. In order to ensure the enzyme was fully solubilised, the solution was vortexed for thirty seconds, and stored at room temperature within a sealed container and used within thirty minutes. […]
A 96 well format was developed to screen large numbers of combinations of reactant ratios and concentrations. […] Relative quantities of these were added. […] Sufficient quantities of distilled water were added to make up to a final volume of […]. […] Results of the reactions were measured by HPLC, and the degree of conversion of Fmoc/Cbz-amino acid to Fmoc/Cbz-tripeptide was calculated.

In the case of Fmoc-triGlycine [Fmoc-GGG], the gel formation result was “doesn't form a gel”.
